Experimental data published in patent US5283243A, “Piperidinoalkylbenzoxazine and piperidinoalkylbenzothiazine compounds, and medicaments containing them” (Kali-Chemie Pharma GmbH, priority 1990, dated 1994).
Read-outs that look alike come from different tables or passages of the source.

How the values were obtained:
[1] = test system: cyclooxygenase (6-keto-PGF1α release); test: Cyclooxygenase inhibition: 6-keto-PGF1α release from zymosan-stimulated mouse peritoneal macrophage cells; assay type: cell-based; conditions: Peritoneal macrophage cell, read-out: In vitro % inhibition upon release of 6-keto-PGF1α
Description: (§1) 5. In vitro Determination of Cyclooxygenase Inhibition and 5-Lipoxygenase Inhibition
(§2) After a cell is activated, arachidonic acid contained in cell membranes is metabolized in two ways. Leucotrienes, inter alia leucotriene C4, are formed due to the action of the enzyme 5-lipoxyqenase (=5-LO), and prostanoids are formed due to the action of the enzyme cyclooxygenase (=CO). In in vitro systems these metabolites are secreted from the cell.
(§3) To evaluate the cyclooxygenase-inhibiting and 5-lipoxygenase-inhibiting properties of the test substances, their inhibitory activity on the biosynthesis of the arachidonic acid derivatives leucotriene C4 (=LTC4) and 6-keto-prostaglandin F1α (=6-keto-PGF1 α) was determined in vitro on mouse peritoneal macrophage cells. For this purpose the LTC4 and 6-keto-PGF1 α contents of a mouse peritoneal macrophage cell culture medium were determined by zymosan stimulation as described by Scott et al. (J. Exp. Med. 152 (1980), 324-335) and by Fradin et al., (Prostaglandins, 33 (1987), 579-589).
(§4) A cell suspension containing peritoneal cells from male mice 8-10 weeks old was obtained in a known manner. A solution marketed under the designation RPMI 1640 (Manufactured by Gibco) was used as the cell culture medium, to which heparin (10 international units/ml) and antibiotics were added according to the procedure of Bonney et al. (Biochem. J. 176 (1978) 422-433). The cell suspension was adjusted to a cell concentration of 10^6 cells per ml and distributed uniformly on titer dishes containing 24 1-ml titer cells (wells). These were kept for two hours in a humidified incubator filled with air enriched with 7% CO2. Cells not adhering to the titer well walls were then removed by washing. The remaining macrophage cells adhering to the walls were incubated for about 12 hours in a suspension medium to which 0.1% of bovine serum albumin (BSA=Bovine Serum Albumin) was added. The suspension medium was then replaced by a Hanks salt solution (=Hanks Balanced Salt Solution=HBSS) with 10 mmoles of Hepes (=hydroxyethylpiperazinoethanesulfonic acid) to which a 0.1% strength solution of the test substances in aqueous, 1% strength dimethylformamide or only the solvent had been added. After 15 minutes the arachidonic acid metabolism was stimulated by adding […] of zymosan (=glycoprotein mixture isolated from cell walls of beer yeast, Saccharomyces cerevisiae, Manufactured by Sigma Chemical Co., Munich) per titre cell. After 2 hours samples of the respective supernatant liquid in each cell were examined for their 6-keto-PGF1α and LTC4 contents by an enzyme immunoassay (=EIA). This EIA is carried out following the method of Pradelles et al. (Analytical Chem. 57 (1985), 1170-1173). The determination of LTC4 and the determination of 6-keto-PGF1α were each carried out on suitable dilutions of the samples (1:50 to 1:250 for the LTC4 determination and 1:250 to 1:1,250 for the 6-keto-PGF1α determination) in comparison with a comparative scale. To determine the inhibiting effect of a 10^-5 molar concentration of the compounds, the amounts of reference eicosanoid were determined, and the inhibiting effect was calculated therefrom in % inhibition compared to the measurements of the zymosan controls.

[2] = test system: PAF-induced aggregation of rabbit blood platelets; test: Anti-PAF activity in vitro, inhibition of PAF-induced platelet aggregation; assay type: cell-based, rabbit (New Zealand hybrids); conditions: test substance concentration of 10^-5 mole/l, pH 7.4
Description: 4. Determination of Anti-PAF Activity In Vitro
PAF (=Platelet Activating Factor) is a phospholipid mediator which has many effects. Activation of platelet aggregation induces protracted broncho-contraction and hyper-reactivity of the air paths.
In this test the effect of the test substances on platelet aggregation induced by adding PAF to a suspension of platelets obtained from rabbit blood is investigated using the method described by Mikashima et al. (Jap. J. Pharmacol. 44 (1987) 387-391).
A suspension of platelets obtained from rabbit blood containing 4×10^9 platelets/ml in a modified Tyrode buffer solution (=Tyrode solution with 1.3 mM/1 CaCl2 and 2.5 g/l gelatine added) adjusted to pH 7.4 was used. Tyrode solution is an aqueous solution containing 136.9 mmoles NaCl, 2.68 mmoles KCl, 2.31 mmoles CaCl2, 1.0 mmole MgCl2, 11.9 mmoles NaHCO3, 1.45 mmoles NaH2 PO4 and 5.55 mmoles glucose per liter. The platelets were obtained from 10 ml blood samples from each of three rabbits (New Zealand hybrids, body weight 3-4 kg). For this the blood samples were treated with ethylenediamine tetraacetic acid and washed according to the method of Artley et al. (Brit. J. Hematol. 19 (1970), 7-17). […]
To carry out the test 50 μl of the platelet suspension and 10 μl of a 40×10^-5 molar solution of the compound being investigated were added with stirring (1,000 rpm) to 330 μl of the modified Tyrode buffer solution in an aggregation tube provided with a small magnetic stirrer. […] The aggregation occurring in the aggregation tubes was measured over 4-5 minutes with the aid of a computerized aggregometer.
The aggregation which occurred in test tubes containing only platelet suspension was evaluated as 0%, whereas the aggregation which occurred in test tubes containing platelet suspension and PAF preparation was evaluated as 100%. The aggregation which still occurred during the inhibition of the PAF induced platelet aggregation due to the addition of the test substances was measured, and the resulting aggregation inhibition was calculated therefrom in %.

[3] = test system: 5-lipoxygenase (LTC4 release); test: 5-Lipoxygenase inhibition: LTC4 release from zymosan-stimulated mouse peritoneal macrophage cells; assay type: cell-based; conditions: Peritoneal macrophage cell, read-out: In vitro % inhibition upon release of LTC4
Description: as §1, §2, §3, §4

mice = test: Determination of minimum toxic dose; assay type: in vivo; conditions: mouse, per os; lowest dose producing death or severe toxic symptoms, maximum dose 300 mg/kg, 24 hours
Description: 2. Determination of Minimum Toxic Dose
Maximum doses of 300 mg/kg of the test substance were administered orally to male mice weighing 20-25 g. The animals were observed carefully for 3 hours for toxicity symptoms. In addition, all symptoms and deaths were recorded over a period of 24 hours after administration. Associated symptoms were also observed and recorded. If death or severe toxic symptoms were observed, additional mice were administered increasingly lower doses. The lowest dose which produced death or severe toxic symptoms is given in the following Table B as the minimum toxic dose.

[4] = zymosan-stimulated mouse peritoneal macrophage cells, 10^-5 mole/l

Compound	inhibition at 10 µM ([1]; Mus musculus) [%]	% inhibition of the PAF-induced aggregation of rabbit blood platelets [2] [%]	inhibition at 10 µM ([3]; Mus musculus) [%]	Minimum toxic dose (mice) [mg/kg]	inhibition at 10 µM [1, 4] [%]	inhibition at 10 µM [3, 4] [%]
N#CC1(c2ccccc2)CCN(CCCC2Oc3ccc(Cl)cc3NC2=O)CC1 (stereo not shown) [Example 14]	25	57	10	–	–	–
O=C1Nc2ccccc2SC1CCCN1CCC(Cc2ccccc2)CC1 (stereo not shown) [Example 21]	–	33	–	100	11	24
Cc1cc2c(cc1C)SC(CCCCN1CC=C(c3ccccc3)CC1)C(=O)N2 (stereo not shown) [Example 19]	–	72	–	–	16	57
